This is an account of results in US8748575B2, “Therapeutic peptides” (Combimab, Inc., priority 2010, dated 2014).

Test [1] concerns the target T1, GC-C (Mus musculus, UniProt Q3UWA6).
T1 construct: freshly prepared mouse intestine membranes; from tissue; host or cells: mouse intestine (membrane preparation)
T1 sequence (Q3UWA6 20-1072): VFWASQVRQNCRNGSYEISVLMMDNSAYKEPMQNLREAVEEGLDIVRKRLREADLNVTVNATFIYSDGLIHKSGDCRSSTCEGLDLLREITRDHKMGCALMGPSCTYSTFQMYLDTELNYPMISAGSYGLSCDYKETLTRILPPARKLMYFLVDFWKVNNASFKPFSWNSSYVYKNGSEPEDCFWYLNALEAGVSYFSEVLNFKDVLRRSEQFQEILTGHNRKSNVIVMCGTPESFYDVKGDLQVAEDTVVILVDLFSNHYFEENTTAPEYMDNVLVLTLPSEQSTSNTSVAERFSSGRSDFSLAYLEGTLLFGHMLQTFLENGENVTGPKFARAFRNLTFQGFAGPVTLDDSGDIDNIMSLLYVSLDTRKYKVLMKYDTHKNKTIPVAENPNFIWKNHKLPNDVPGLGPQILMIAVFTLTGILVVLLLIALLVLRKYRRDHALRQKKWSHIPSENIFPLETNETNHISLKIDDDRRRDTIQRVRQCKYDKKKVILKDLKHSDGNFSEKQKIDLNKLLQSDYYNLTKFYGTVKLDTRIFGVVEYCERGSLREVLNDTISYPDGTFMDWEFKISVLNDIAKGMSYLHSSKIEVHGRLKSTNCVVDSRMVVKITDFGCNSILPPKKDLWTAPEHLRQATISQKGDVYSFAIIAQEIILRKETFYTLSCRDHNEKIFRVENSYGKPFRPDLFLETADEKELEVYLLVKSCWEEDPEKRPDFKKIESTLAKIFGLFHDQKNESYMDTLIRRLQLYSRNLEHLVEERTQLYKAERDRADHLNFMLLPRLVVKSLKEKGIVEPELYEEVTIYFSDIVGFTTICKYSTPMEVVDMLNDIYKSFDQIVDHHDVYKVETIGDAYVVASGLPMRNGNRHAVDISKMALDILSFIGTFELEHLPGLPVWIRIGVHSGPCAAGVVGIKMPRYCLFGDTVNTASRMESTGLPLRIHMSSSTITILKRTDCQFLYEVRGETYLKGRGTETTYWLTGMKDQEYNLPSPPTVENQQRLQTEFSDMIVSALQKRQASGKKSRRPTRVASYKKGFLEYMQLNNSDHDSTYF
Put plainly: Intestinal membrane 125I-STa competitive radioligand binding assay. The following applies: for I-125 binding assay: graded activity/potency, mouse intestinal membranes. On the set-up: key to I-125 binding assay: 1+ (lowest activity/potency); ++: Results are graded from 1+ (lowest activity/potency) to 5+ (highest activity/potency); +++: Results are graded from 1+ (lowest activity/potency) to 5+ (highest activity/potency); ++++: Results are graded from 1+ (lowest activity/potency) to 5+ (highest activity/potency); +++++: 5+ (highest activity/potency). On the procedure:
Intestinal membrane 1-125 labeled radioligand binding assay. The intestinal membrane radioligand binding assay was used to assess whether a novel compound could displace ^125I-STa from GC-C (Crane et al., 1992). Each analog was analyzed for its ability to displace ^125I-STa from GC-C in a competitive binding assay. ^125I-ST Displaced” was determined by co-incubating STa analogs (10 μM) with 50,000 DPM of ^125I-STa (1-18) in the presence of mouse intestinal membranes. The displacement (n=3) for each analog was determined relative to a vehicle control.
Membranes were prepared from freshly harvested mouse intestines by first washing away the blood or feces with ice-cold Dulbecco's PBS. Washed organs were minced with a single-edged razor blade, followed by homogenization on ice in 50 mM Tris, pH 7.6, containing 1 mM EDTA, 1 mM PMSF, 1 mM DTT. Debris was then removed by a 15 minute centrifugation at 3,000×G and 4° C. The supernatant is then passed through successively smaller needles (18 gauge through 25 gauge) and frozen at −70° C. until used as a tissue homogenate. If intended for use as isolated membranes, the above homogenate was centrifuged (100,000×G) at 4° C. for 1 hour while fresh and the pellet was re-suspended in homogenization buffer.
The assay was performed in 96 well filter plates which were pre-incubated overnight with 200 μl of 0.3% polyethylenimine (w/v) and washed three times by aspiration with 300 μl of Wash Buffer (150 mM NaCl, 20 mM Sodium Phosphate pH=7.2, 1 mM EDTA) immediately before use. Into each well of was added 50 μl of 3× Binding buffer (150 mM Tris-HCl pH=7.6, 1.98 mM Cysteamine, 0.3% Bacitracin, 1350 mM NaCl, 3 mM EDTA), 40 μl of double-distilled water, 10 μl of either double-distilled water or cold ligand (50 uM STa (5-18) in double-distilled water), 10 μl of increasing concentrations (125 DPM/ul to 50,000 DPM/ul) of radiolabeled 125I -STa (1-18) and finally 40 μl (approximately 2 mg protein/ml) of freshly prepared mouse intestine membranes. The plates were then incubated with mixing at 37 C for two hr, washed successively with six 200 μl aliquots of Wash Buffer and aspirated to dryness. The filter bottoms of each well were punched into individual borosilicate tubes and bound radioactivity determined in a gamma counter. Protein content was determined on an aliquot of the mouse intestine membranes used in the Biorad Protein Assay.

For test [2], the system named is T84 cells (GC-C). Description: Intact T84 cell cGMP accumulation assay. The class given is cell-based, Human. On the set-up: key to CGMP accumulation assay: 1+ (lowest activity/potency); ++: Results are graded from 1+ (lowest activity/potency) to 5+ (highest activity/potency); +++: Results are graded from 1+ (lowest activity/potency) to 5+ (highest activity/potency); ++++: Results are graded from 1+ (lowest activity/potency) to 5+ (highest activity/potency); +++++: 5+ (highest activity/potency). The following applies: for CGMP accumulation assay: graded activity/potency, T84 cells; for activity in the cGMP accumulation assay: FIG. 22, compared to STa peptide. The procedure: The intact T84 cell assay was used to detect the accumulation of cGMP, the product of agonism, upon interaction with a compound (Visweswariah et al., 1992). Human colorectal adenocarcinoma T84 cells were grown to confluence in a 24 well plate using DMEM/F12 medium supplemented with 10% FBS. The media was aspirated from each well and the cells were washed three times with Dulbecco's PBS (1×, no Ca2+ or Mg2+). The cells were then incubated for 30 minutes at 37° C. with 1 mM […] (IBMX) in Optimem medium (no FBS), either with or without potential antagonists. After incubation under these conditions, a 10× concentrated stock of a known GC-C agonist (e.g., STa (5-18)) in PBS was added to each well and the incubation continued for an additional 15 min at 37° C.
The reaction was stopped by the addition of 200 μL of Passive Lysis Buffer (Promega) to each well. The supernatant was removed for cGMP quantitation by RIA using ^125I-labeled cGMP 54 antibody relative to an external cGMP standard curve. The cells were scraped from the surface for protein content determination using a BioRad Protein Assay.

The nature of test [3]: Mouse intestinal secretion assay (suckling mouse assay). The class given is in vivo. The following applies: for Mouse intestinal secretion assay (suckling mouse): graded activity/potency. Also noted: key to Mouse intestinal secretion assay (suckling mouse): 1+ (lowest activity/potency); ++: Results are graded from 1+ (lowest activity/potency) to 5+ (highest activity/potency); +++: Results are graded from 1+ (lowest activity/potency) to 5+ (highest activity/potency); ++++: Results are graded from 1+ (lowest activity/potency) to 5+ (highest activity/potency); +++++: 5+ (highest activity/potency). The procedure: A relevant disease model is the suckling mouse model in which STa (5-18) is deposited into the stomach of 3-4 day old mice, and the accumulation of fluid in their intestines is determined gravimetrically (Parkinson et al., 1994). All GCC peptides were formulated to the desired concentration in Dulbecco's PBS (1×, No Ca++, no Mg++) containing […] immediately prior to dosing. Proteinase inhibitors were prepared as stock solutions in PBS and added to dosing solutions by serial dilution, as needed. The dosing solution (50 μL) was delivered into the stomachs of 2-4 day old mice (3 per dosing group) using a plastic tube attached to the needle of a 1 mL tuberculin syringe. After 3 hours, the animals were sacrificed and dissected to determine the individual weights of the intestines and the rest of the carcass, respectively.

Setting [4] is: FIG. 20, compared to ST peptide.
Where [5] appears, read: FIG. 21, compared to linaclotide.

Turning to “H2N Cys Cys Glu L-Thr Cys Cys Asn Pro Ala Cys Ala Gly Cys Tyr COOH (H-CCETCCNPACAGCY-OH; not fully specified (bridges); printed as Cys Cys Glu Thr Cys Cys Asn Pro Ala Cys Ala Gly Cys Tyr; cysteine pairing not given here) [Peptide B]”, in test [1] (FIG. 18, compared to STa), the “activity in the I-125 labeled radioligand binding assay” value was “activity comparable to STa”. For the same substance, in test [1], the I-125 binding assay result is “++++”. In addition, in test [2], the CGMP accumulation assay entry is listed as “+++”. In addition, the “activity in the cGMP accumulation assay” value in test [2] (second experiment) was “lower than the STa peptide”. The “activity in the mouse intestinal secretion assay” value in test [3] (FIG. 26, compared to STa) is listed as “lower activity”. In test [3], the “Mouse intestinal secretion assay (suckling mouse)” value is “+++”.

As to “H2N Cys Cys Glu Leu Cys Cys Asn Dhp Ala Cys Ala Gly Cys Tyr COOH (CCELCCNXACAGCY; not fully specified; non-natural residue Dhp; Modified Amino Acid (8)..(8): Xaa8 = Dhp = 3,4,-dihydro-Proline, D-Pro 3,4-Dehydroproline) [Peptide A]”, the “activity in the I-125 labeled radioligand binding assay” value in test [1] (FIG. 18, compared to STa) is “better activity than STa”; in test [1] (FIG. 19, compared to linaclotide), “superior activity compared to linaclotide”; in test [1] (setting [4]), “superior to ST peptide”; in test [1] (setting [5]), “superior to linaclotide”. Further, the I-125 binding assay result in test [1] is given as “+++++”. The “activity in the cGMP accumulation assay” value in test [2] and in test [2] (second experiment) was “higher than the STa peptide” in each case. Besides, in test [2], the CGMP accumulation assay result is “+++++”. Besides, the “activity in the mouse intestinal secretion assay” value in test [3] (FIG. 24, compared to linaclotide) is listed as “better activity than linaclotide”; in test [3] (FIG. 25, compared to STa peptide), “higher activity than the STa peptide”; in test [3] (FIG. 26, compared to STa), “higher activity than STa”. For the same substance, the “Mouse intestinal secretion assay (suckling mouse)” value in test [3] was “+++++”.

As for “H2N Cys Cys Glu Leu Cys Cys Asn HyPro Ala Cys Ala Gly Cys Tyr COOH (CCELCCNXACAGCY; not fully specified; non-natural hydroxy residue; Modified Amino Acid (8)..(8): Xaa8 = HyPro = Hydroxy-Proline, Hyp, Hydroxyproline) [Peptide C]”, the “activity in the I-125 labeled radioligand binding assay” value in test [1] (setting [4]) is recorded as “comparable to ST peptide”; in test [1] (setting [5]), “lower than linaclotide”. Further, the I-125 binding assay result in test [1] is reported as “++”. The CGMP accumulation assay result in test [2] is reported as “+++”. Further, the “activity in the cGMP accumulation assay” value in test [2] (second experiment) is “lower than the STa peptide”.

For “H2N Cys Cys Glu Leu Cys Cys Asn Thz Ala Cys Ala Gly Cys Tyr COOH (CCELCCNXACAGCY; not fully specified; non-natural residue Thz; Modified Amino Acid (8)..(8): Xaa8 = Thz = Thiazolidine (4-thiazolidine-2-carboxylic acid), Tzd) [Peptide D]”, the “activity in the I-125 labeled radioligand binding assay” value in test [1] (setting [4]) is on record as “superior to ST peptide”. For the same substance, the I-125 binding assay entry in test [1] is recorded as “+++++”. In test [2], the CGMP accumulation assay entry was “+++++”. Further, the “activity in the cGMP accumulation assay” value in test [2] (second experiment) is reported as “higher than the STa peptide”. Also, the “activity in the mouse intestinal secretion assay” value in test [3] (FIG. 26, compared to STa) is recorded as “higher activity than STa”. The “Mouse intestinal secretion assay (suckling mouse)” value in test [3] was “+++++”.
